These results are taken from US10245256B2, “Nitroxides for use in treating or preventing diabetes and obesity” (Mitos Pharmaceuticals, Inc., priority 2005, dated 2019).

Test [1] deals with Keratinocyte Growth Factor (Fibroblast Growth Factor 7). As to the kind of experiment: Gene expression in cardiac tissue of mice fed Tempol, chip-based microarray. It is filed as in vivo. The note with it: 5 mg/g of food from 14 to 31 months. As for the experimental part: To assess the effects of Tempol on gene expression, Tempol was administered to experimental mice at a dose of 5 mg/g of food from 14 months to 31 months after birth. Mice receiving the same food without the addition of Tempol were used as a negative control. At the age of 31 months, the experimental animals were sacrificed and the hearts were surgically removed. The expression of a broad spectrum of genes in the cardiac tissue was assessed using chip-based microarray technology. Such chips are well known in the art and are widely used to assess gene expression.

The test system of test [2] is Adiponectin, C1Q and collagen domain containing (ADIPOQ). As to the kind of experiment: Gene expression in adipose tissue of mice fed Tempol, Affymetrix MOE430A 2.0 array. The class given is in vivo. The conditions noted are these: 5 g/kg of diet from 12 through 15 months. As for the experimental part: In a further gene expression study, Tempol was administered to experimental mice at a dose of 5 g/kg of diet from 12 months through 15 months. Mice receiving the same diet without the addition of Tempol were used as a negative control. At the age of 15 months, the adipose tissue of the experimental animals was obtained. The expression of a broad spectrum of genes in the adipose tissue was assessed using chip-based microarray technology. Specifically, in this case an Affymetrix MOE430A 2.0 array, containing 12,960 genes, was employed. Such chips are well known in the art and are widely used to assess gene expression.

Test [3] deals with keratinocyte growth factor. As to the kind of experiment: Protein level of keratinocyte growth factor in pancreatic ductal cells of patient after Tempol treatment. It is filed as in vivo, human. The note with it: 1500 mg per day for 180 days. How it is done:
(§1) A 70-kilogram diabetic patient is administered a dose of 1500 mg of Tempol per day for 180 days. This may be administered in a single dose, or may be administered as a number of smaller doses over a 24-hour period: for example, three 500-mg doses at eight-hour intervals. Following treatment, the protein level of keratinocyte growth factor in the pancreatic ductal cells, and the serum level of adiponectin, is increased.
(§2) A 70-kilogram patient at risk for but not yet diagnosed with diabetes is administered a dose of 1500 mg of Tempol per day for 180 days. This may be administered in a single dose, or may be administered as a number of smaller doses over a 24-hour period: for example, three 500-mg doses at eight-hour intervals. Following treatment, the protein level of keratinocyte growth factor in the pancreatic ductal cells, and the serum level of adiponectin, is increased.

The subject of test [4] is adiponectin. As to the kind of experiment: Serum level of adiponectin of patient after Tempol treatment. The class given is in vivo, human. The note with it: 1500 mg per day for 180 days. How it is done:
as §1, §2

The mark [5] stands for this setting: 70-kilogram patient at risk for but not yet diagnosed with diabetes.

Consider `CC1(C)CC(O)CC(C)(C)N1[O]` [Tempol, 4-hydroxy-2,2,6,6-tetramethylpiperidine-1-oxyl], for which the “KGF expression, TEMPOL-treated mouse tp51” value in test [1] (microarray signal, individual animal tp51) is given as 13. For the same molecule, the “KGF expression, TEMPOL-treated mouse tp52” value in test [1] (microarray signal, individual animal tp52) was 52. Moreover, in test [1] (microarray signal, individual animal tp53), the “KGF expression, TEMPOL-treated mouse tp53” value stood at 96. Further, the “Fold change of KGF expression” value in test [1] (TEMPOL-treated vs control mice) was determined as 2.1 fold. Also, the “Mean adiponectin expression (Tempol-treated mice)” value in test [2] (microarray signal, control mean 27698) is 33876. The “Fold change of adiponectin expression” value in test [2] (Tempol-treated vs control mice, P value 0.003) is “increase in expression”. The “protein level of keratinocyte growth factor in the pancreatic ductal cells” value in test [3] (70-kilogram diabetic patient) and in test [3] (setting [5]) was “increased” in each case. The “serum level of adiponectin” value in test [4] (70-kilogram diabetic patient) and in test [4] (setting [5]) was “increased” in each case.
